This passage reports EC50 and Activity results from ChEMBL document CHEMBL1811761, “Recent advances in drug discovery of benzothiadiazine and related analogs as HCV NS5B polymerase inhibitors” (Bioorg Med Chem, 2011).

Usually EC50 stands for the concentration that produces a half-maximal response.

The subject of series [1] is Hepatitis C virus. As to the kind of experiment: Antiviral activity against HCV 1b N infected in human HuH7 cells assessed as inhibition of viral RNA replication after 3 days by RT-PCR analysis. It counts as functional, organism-based, Hepacivirus hominis. The following applies: genotype 1b strain N, Huh-7, 72 h.
In series [2] the test system is Huh-7. As to the kind of experiment: Cytotoxicity against human HuH7 cells up to […]. It is filed as cell-based.

Structures are written as SMILES.

Regarding `O=c1c(C2=NS(=O)(=O)c3ccccc3N2)c(O)c2ccccc2n1NC1CC1`, the EC50 in series [1] is 100 nM. As for `NC(=O)COc1ccc2c(c1)S(=O)(=O)N=C(c1c(O)c3ccccc3n(NC3CCC3)c1=O)N2`, in series [1], the EC50 came to 70 nM. In addition, the Activity entry in series [2] was “Non-toxic”. In the case of `O=c1c(C2=NS(=O)(=O)c3ccccc3N2)c(O)c2ccccc2n1NC1CCC1`, the EC50 in series [1] turned out to be 100 nM.
